Read-outs that look alike come from different tables or passages of the source.
Experiments:
human α1B‐adrenoceptor [1] = biological target: T1, human α1B‐adrenoceptor (Homo sapiens, UniProt P35368); assay: Intracellular free calcium mobilization, CHO‐α1B cells; type: cell-based
T1 construct: expressed in transfected cells; host or cells: CHO-K1
T1 sequence (P35368 1-520): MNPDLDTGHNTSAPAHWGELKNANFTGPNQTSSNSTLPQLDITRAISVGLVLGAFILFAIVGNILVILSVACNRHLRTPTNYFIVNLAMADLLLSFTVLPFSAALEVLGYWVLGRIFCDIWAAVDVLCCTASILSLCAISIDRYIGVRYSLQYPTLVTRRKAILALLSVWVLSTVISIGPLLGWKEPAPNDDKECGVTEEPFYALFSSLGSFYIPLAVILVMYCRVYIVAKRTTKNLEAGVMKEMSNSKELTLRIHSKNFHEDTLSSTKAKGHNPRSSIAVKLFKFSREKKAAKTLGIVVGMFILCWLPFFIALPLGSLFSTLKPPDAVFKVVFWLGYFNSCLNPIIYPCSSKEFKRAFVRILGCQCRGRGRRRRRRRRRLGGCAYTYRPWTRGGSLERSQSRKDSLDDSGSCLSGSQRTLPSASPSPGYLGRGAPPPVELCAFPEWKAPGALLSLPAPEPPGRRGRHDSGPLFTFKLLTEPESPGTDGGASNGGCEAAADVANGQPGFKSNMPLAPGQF

human α1B‐adrenoceptor [2] = biological target: T1, human α1B‐adrenoceptor; assay: ERK1/2‐phosphorylation (Surefire Alphascreen), CHO‐α1B cells; type: cell-based
[3] = test system: parental CHO cell line without any transfected receptors; assay: ERK1/2‐phosphorylation, parent CHO cells without transfected receptors; type: cell-based, Chinese hamster; conditions: for ERK1/2-phosphorylation % PDBu / ERK1/2-phosphorylation Log EC50: CHO cells without transfected receptors, mean ± s.e.m.; for ERK1/2-phosphorylation % PDBu: maximal response as % of PDBu (10μM) response
human α1B‐adrenoceptor [4] = biological target: T1, human α1B‐adrenoceptor; assay: ^3H‐prazosin whole‐cell radioligand binding, CHO‐α1B cells
human α1A‐adrenoceptor [5] = biological target: T2, human α1A‐adrenoceptor (Homo sapiens, UniProt P35348); assay: ^3H‐prazosin whole‐cell radioligand binding, CHO‐α1A cells; conditions: for Log KD α1A, ^3H‐prazosin whole cell binding: CHO‐α1A cells, given as log KD (negative), mean ± SEM
T2 construct: expressed in transfected cells; host or cells: CHO-K1
T2 sequence (P35348 1-466): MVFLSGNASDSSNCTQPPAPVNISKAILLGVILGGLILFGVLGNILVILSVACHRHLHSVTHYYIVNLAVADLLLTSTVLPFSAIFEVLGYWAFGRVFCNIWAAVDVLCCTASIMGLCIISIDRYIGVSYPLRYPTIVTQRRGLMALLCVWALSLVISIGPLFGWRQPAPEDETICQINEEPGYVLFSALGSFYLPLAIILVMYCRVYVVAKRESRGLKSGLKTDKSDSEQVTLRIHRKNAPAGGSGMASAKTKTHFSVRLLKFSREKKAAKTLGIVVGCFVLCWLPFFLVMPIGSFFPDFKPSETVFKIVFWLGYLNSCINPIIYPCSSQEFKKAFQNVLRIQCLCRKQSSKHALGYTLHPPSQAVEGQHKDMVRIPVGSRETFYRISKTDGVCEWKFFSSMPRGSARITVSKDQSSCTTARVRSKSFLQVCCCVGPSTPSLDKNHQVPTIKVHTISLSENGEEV

[6] = biological target: T3, human α1D‐adrenoceptor (full length) (Homo sapiens, UniProt P25100); assay: ^3H‐prazosin whole‐cell radioligand binding, CHO‐α1D cells; conditions: for Log KD α1D, ^3H‐prazosin whole cell binding: given as log KD (negative), mean ± SEM, 'early plateau' = specific binding not fully inhibited
T3 construct: human α1D‐adrenoceptor (full length) were used; expressed in transfected cells; host or cells: CHO-K1
T3 sequence (P25100 1-572): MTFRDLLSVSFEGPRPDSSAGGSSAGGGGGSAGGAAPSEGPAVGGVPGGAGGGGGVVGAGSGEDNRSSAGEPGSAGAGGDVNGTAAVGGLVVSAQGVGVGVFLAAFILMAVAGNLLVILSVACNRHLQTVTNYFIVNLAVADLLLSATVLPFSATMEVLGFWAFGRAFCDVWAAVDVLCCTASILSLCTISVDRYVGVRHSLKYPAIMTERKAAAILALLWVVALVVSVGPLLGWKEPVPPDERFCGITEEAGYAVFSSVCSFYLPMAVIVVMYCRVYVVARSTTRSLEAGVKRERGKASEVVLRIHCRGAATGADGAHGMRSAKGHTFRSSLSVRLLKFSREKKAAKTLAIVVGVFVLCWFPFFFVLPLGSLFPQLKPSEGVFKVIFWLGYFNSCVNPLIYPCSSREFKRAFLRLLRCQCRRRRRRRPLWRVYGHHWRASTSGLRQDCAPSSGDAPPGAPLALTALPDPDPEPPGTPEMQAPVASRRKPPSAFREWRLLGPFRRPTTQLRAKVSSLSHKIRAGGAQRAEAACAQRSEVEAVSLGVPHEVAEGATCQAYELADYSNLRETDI

human α1A‐adrenoceptor [7] = biological target: T2, human α1A‐adrenoceptor; assay: Intracellular free calcium mobilization, CHO‐α1A cells; type: cell-based; conditions: CHO‐α1A cells
[8] = biological target: T3, human α1D‐adrenoceptor (full length); assay: Intracellular free calcium mobilization, CHO‐α1D cells; type: cell-based; conditions: CHO‐α1D cells; for Intracellular calcium release Log EC50: log values given negative; for Intracellular calcium release % ionomycin: maximal response as % of 10 µM ionomycin
[9] = biological target: T3, human α1D‐adrenoceptor (full length); assay: ERK1/2‐phosphorylation (Surefire Alphascreen), CHO‐α1D cells; type: cell-based; conditions: CHO‐α1D cells; for ERK1/2‐phosphorylation Log EC50: log values given negative; for ERK1/2‐phosphorylation % PDBu: maximal response as % of PDBu

CN[C@@H](C)[C@H](O)c1ccccc1 [Epdedrine] was tested, and the “Intracellular calcium release % Ionomycin at 100 µM” value (human α1B‐adrenoceptor [1]) was 18.5 ± 2.9%, the “ERK1/2‐phosphorylation % PDBu” value (human α1B‐adrenoceptor [2]) was 19.1 ± 4.0% and the “ERK1/2‐phosphorylation Log EC50” value (human α1B‐adrenoceptor [2]) was −4.67 ± 0.17.

CCCC(=O)O[C@@H]1[C@@H](C)[C@@]2(O)[C@@H](C=C(CO)C[C@]3(O)C(=O)C(C)=C[C@@H]23)[C@@H]2C(C)(C)[C@]12OC(=O)CCC [PDBu, Phorbol 12,13‐dibutyrate] was tested, and the “ERK1/2‐phosphorylation response fold over basal” value [3] was 7.5 ± 0.9 fold over basal.

For c1ccc2c(c1)CCCC2C1=NCCN1 (centres unmarked) [Tetrohydrozoline], the “Log KD, ^3H‐prazosin binding” value (human α1B‐adrenoceptor [4]) was −5.22, the “Intracellular calcium release % Ionomycin at 100 µM” value (human α1B‐adrenoceptor [1]) was 2.9 ± 1.4% and the “ERK1/2‐phosphorylation % PDBu” value (human α1B‐adrenoceptor [2]) was “No response”. For the same compound, the “ERK1/2‐phosphorylation Log EC50” value (human α1B‐adrenoceptor [2]) was “No response”.

With C1=C(c2cnc[nH]2)c2ccsc2CC1 [RWJ52353] the “Log KD α1A, ^3H‐prazosin whole cell binding” value (human α1A‐adrenoceptor [5]) was −5.28 ± 0.08, the “Affinity selectivity ratio α1A vs α1B” value (human α1A‐adrenoceptor [5]; higher affinity for α1A than α1B) was greater than 190 fold and the “Affinity selectivity ratio α1A vs α1D” value (human α1A‐adrenoceptor [5]; higher affinity for α1A than α1D) was 9.6 fold. The “Log IC50 α1B, ^3H‐prazosin whole cell binding” value (human α1B‐adrenoceptor [4]; CHO‐α1B cells, printed as IC50> log value) was “IC50 >−3”, the “3H‐prazosin binding Log KD” value ([6]; CHO‐α1D cells, whole‐cell binding (from Table 1), log values given negative) was −4.30 and the “Log KD α1D, ^3H‐prazosin whole cell binding” value ([6]; CHO‐α1D cells) was −4.30 ± 0.12. For the same compound, the “Affinity selectivity ratio α1B vs α1D” value ([6]; higher affinity for α1D than α1B) was greater than 20 fold, the “Intracellular calcium release % ionomycin at 10 µM” value (human α1A‐adrenoceptor [7]; response at 10 μM ligand, no EC50 obtained) was 39.4 ± 2.4% and the “Intracellular calcium release % ionomycin at 10 µM” value (human α1B‐adrenoceptor [1]; CHO‐α1B cells, response at 10 µM ligand (no EC50 given), % of ionomycin response) was 8.1 ± 3.1%. The “Intracellular calcium release Log EC50” value [8] was “No response”, the “Intracellular calcium release % ionomycin” value [8] was “No response” and the “ERK1/2‐phosphorylation Log EC50” value [9] was “No response”. The “ERK1/2‐phosphorylation % PDBu” value [9] was “No response”, the “ERK1/2-phosphorylation % PDBu” value [3] was “No response” and the “ERK1/2-phosphorylation Log EC50” value [3] was “No response”.

With C[C@](N)(Cc1ccc(O)c(O)c1)C(=O)O [Methyldopa] the “Log KD α1A, ^3H‐prazosin whole cell binding” value (human α1A‐adrenoceptor [5]) was “No binding”, the “Log KD, ^3H‐prazosin binding” value (human α1B‐adrenoceptor [4]; CHO‐α1B cells, whole‐cell binding (from Table 1), given as log KD (negative numbers)) was “No binding” and the “Log KD α1B, ^3H‐prazosin whole cell binding” value (human α1B‐adrenoceptor [4]; CHO‐α1B cells, given as log KD (negative), mean ± SEM) was “No binding”. For the same compound, the IC50 ([6]; CHO‐α1D cells, whole‐cell binding, given as IC50 > log value) was greater than 100 µM, the “Log KD α1D, ^3H‐prazosin whole cell binding” value ([6]; CHO‐α1D cells) was “No binding” and the “Intracellular calcium release Log EC50” value (human α1A‐adrenoceptor [7]; given as log EC50 (negative)) was “No response”. The “Intracellular calcium release % ionomycin” value (human α1A‐adrenoceptor [7]; maximal response as % of 10 µM ionomycin) was “No response”, the “Intracellular calcium release Log EC50” value (human α1B‐adrenoceptor [1]; CHO‐α1B cells, given as log EC50 (negative numbers)) was “No response” and the “Intracellular calcium release % ionomycin” value (human α1B‐adrenoceptor [1]; CHO‐α1B cells, maximal response as % of 10 µM ionomycin response) was “No response”. For the same compound, the “Intracellular calcium release Log EC50” value [8] was “No response”, the “Intracellular calcium release % ionomycin” value [8] was “No response” and the “ERK1/2‐phosphorylation Log EC50” value [9] was “No response”. The “ERK1/2‐phosphorylation % PDBu” value [9] was “No response”, the “ERK1/2-phosphorylation % PDBu” value [3] was “No response” and the “ERK1/2-phosphorylation Log EC50” value [3] was “No response”.
